Assay [1] concerns the target T1, Alkaline phosphatase, tissue-nonspecific isozyme (Homo sapiens, UniProt P05186).
T1 sequence (P05186 whole entry): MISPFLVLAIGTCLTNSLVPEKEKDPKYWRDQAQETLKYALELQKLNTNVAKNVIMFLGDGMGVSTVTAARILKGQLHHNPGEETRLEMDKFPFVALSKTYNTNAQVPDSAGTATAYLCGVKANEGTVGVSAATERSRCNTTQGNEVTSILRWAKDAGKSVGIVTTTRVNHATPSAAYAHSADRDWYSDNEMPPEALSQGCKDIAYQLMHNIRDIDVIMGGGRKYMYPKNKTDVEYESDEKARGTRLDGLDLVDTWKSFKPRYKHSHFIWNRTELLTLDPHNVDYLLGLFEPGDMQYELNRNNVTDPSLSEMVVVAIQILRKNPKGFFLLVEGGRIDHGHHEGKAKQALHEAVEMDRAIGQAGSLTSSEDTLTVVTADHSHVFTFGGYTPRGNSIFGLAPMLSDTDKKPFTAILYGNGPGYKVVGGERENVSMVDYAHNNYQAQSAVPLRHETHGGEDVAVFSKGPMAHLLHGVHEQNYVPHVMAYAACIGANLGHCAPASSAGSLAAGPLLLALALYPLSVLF

The nature of assay [2]: A Cell Based Secondary Assay To Explore Cytotoxicity of Compounds that Sensitize Mycobacterium Tuberculosis to Beta-Lactam Antibiotics. It counts as functional.
Assay [3] deals with C-C chemokine receptor type 6 (Homo sapiens, UniProt P51684). Briefly: antagonism of CCR6 beta-arrestin recruitment – cell-based, luminescent beta-arrestin readout, dose response (AID 504728). It counts as functional.
Assay [4] has as its target Beta-galactosidase (Escherichia coli, UniProt Q8VNN2). As to the kind of experiment: detection-enzyme interference by beta-gal modulators – biochemical, E. coli enzyme, set 3, artefact control for CCR6 antagonist project, dose response (AID 504712). The class given is functional.
The target in assay [5] is T2, Polyadenylate-binding protein 1 (Homo sapiens, UniProt P11940). Briefly: MLLE binding blockers, Cy5 peptide tracer – biochemical, fluorescence polarization, Cy5-PAM2 peptide, secondary, miRNA deadenylation inhibitor project, dose response (AID 602260). The class given is functional. The conditions noted are these: read-out: IC50_Mean.
Assay [6] deals with T2, Polyadenylate-binding protein 1. Briefly: MLLE domain peptide-binding blockers, IC50 – biochemical, fluorescence polarization, FITC-PAM2 peptide, dose response (AID 602259). The conditions noted are these: read-out: IC50_Mean. It counts as functional.
Assay [7] deals with Melanin-concentrating hormone receptor 1 (Homo sapiens, UniProt Q99705). Briefly: Late-stage fluorescence-based counterscreen for antagonists of the G-protein coupled receptor 7 (GPR7): cell-based dose response assay to identify antagonists of the melanin-concentrating hormone receptor 1 (MCHR1). [Related pubchem assays (depositor defined):AID1861, AID1880, AID1952, AID2148, AID2251, AID2257, AID485339]. The class given is functional.

The target in assay [8] is Peroxisome proliferator-activated receptor gamma/Nuclear receptor coactivator 2 (Homo sapiens, UniProt P37231). It counts as functional.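 Further: agonist potency for raising coactivator recruitment to the receptor.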
In assay [9] the target is Peroxisome proliferator-activated receptor gamma/Nuclear receptor coactivator 1 (Homo sapiens, UniProt P37231). It counts as functional.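 Further: agonist potency as compounds enhance coactivator SRC-1 recruitment to PPARgamma.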
The target in assay [10] is Peroxisome proliferator-activated receptor gamma/Nuclear receptor coactivator 3 (Homo sapiens, UniProt P37231). It counts as functional.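 Further: agonist potency for raising coactivator recruitment to the receptor.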
The target in assay [11] is Glyceraldehyde-3-phosphate dehydrogenase (Homo sapiens, UniProt P04406).
Assay [12] in a line: A Cell Based Assay for the Identification of Probe candidate Compounds with Anti- Venezuelan Equine Encephalitis virus. [Related pubchem assays: 2409, 2419, 1621, 2238, 2405, 2024, 2065, 2402, 2414, 1635, 1650, 2244 ]. It counts as functional.
Assay [13] has as its system Streptococcus sp. 'group A'. Briefly: Streptococcus pyogenes SK(-)GAS viability under kanamycin – luminescence, BacTiterGlo, confirmation, counter-screen for streptokinase expression inhibitor project, dose response (AID 1900). The class given is functional, organism-based.
Assay [14] has as its target T3, Voltage-gated N-type calcium channel alpha-1B subunit/Amyloid beta A4 precursor protein-binding family A member 1 (Homo sapiens, UniProt Q00975+Q02410). The class given is protein assay.
Assay [15] deals with T4, Streptokinase A (Streptococcus pyogenes serotype M1, UniProt P10520).
T4 sequence (P10520 whole entry): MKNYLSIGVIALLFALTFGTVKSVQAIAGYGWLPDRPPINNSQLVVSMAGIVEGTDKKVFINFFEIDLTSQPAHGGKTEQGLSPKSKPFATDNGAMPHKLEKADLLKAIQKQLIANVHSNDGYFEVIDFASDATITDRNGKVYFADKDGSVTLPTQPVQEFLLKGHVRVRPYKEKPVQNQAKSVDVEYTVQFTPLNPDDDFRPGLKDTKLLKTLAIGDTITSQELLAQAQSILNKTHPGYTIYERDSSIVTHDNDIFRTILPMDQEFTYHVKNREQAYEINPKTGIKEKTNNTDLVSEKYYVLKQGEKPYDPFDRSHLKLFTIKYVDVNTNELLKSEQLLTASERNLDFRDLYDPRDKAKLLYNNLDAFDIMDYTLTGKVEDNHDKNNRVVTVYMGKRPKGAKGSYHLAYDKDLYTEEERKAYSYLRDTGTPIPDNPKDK
Briefly: viability-normalized secreted streptokinase activity reduction – plasminogen activation absorbance, OD405, dose response (AID 1914).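 Further: secreted streptokinase activity via plasminogen activation per viability signal from cell pellet.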 It counts as functional, Streptococcus pyogenes M1 GAS.

Assay [16] can be described thus: CCR5-tropic HIV-1 fusion blockers – cell-based, CCR5-tropic Env, dose response (AID 2279). The class given is functional.
In assay [17] the target is T3, Voltage-gated N-type calcium channel alpha-1B subunit/Amyloid beta A4 precursor protein-binding family A member 1. It counts as protein assay. This is another data set of the same source.
The target of assay [18] is Induced myeloid leukemia cell differentiation protein Mcl-1 (Homo sapiens, UniProt Q07820). It counts as functional.
Assay [19] deals with Streptococcus. As to the kind of experiment: GAS UMAA2166 growth inhibition – luminescence, BacTiterGlo, counter-screen for streptokinase expression inhibitor project, dose response (AID 1915).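 Further: potency for reduction of bacterial viability or growth.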 The class given is functional, organism-based.
In assay [20] the target is Cytochrome P450 2C19 (Homo sapiens, UniProt P33261). As to the kind of experiment: Cytochrome panel assay with activity outcomes. Panel member name: p450-cyp2c19 Compounds with AC50 equal or less than 10 uM are considered active. The class given is functional. The conditions noted are these: read-out: AC50.
Assay [21] addresses Cytochrome P450 2C9 (Homo sapiens, UniProt P11712).
Assay [22] addresses Cytochrome P450 2D6 (Homo sapiens, UniProt P10635). Briefly: qHTS Assay for Inhibitors and Substrates of Cytochrome P450 2D6. [Related pubchem assays: 410 ]. It counts as ADME. The conditions noted are these: read-out: Potency.
For assay [23], the target named is T5, High affinity choline transporter 1 (Homo sapiens, UniProt Q9GZV3).
T5 sequence (Q9GZV3 whole entry): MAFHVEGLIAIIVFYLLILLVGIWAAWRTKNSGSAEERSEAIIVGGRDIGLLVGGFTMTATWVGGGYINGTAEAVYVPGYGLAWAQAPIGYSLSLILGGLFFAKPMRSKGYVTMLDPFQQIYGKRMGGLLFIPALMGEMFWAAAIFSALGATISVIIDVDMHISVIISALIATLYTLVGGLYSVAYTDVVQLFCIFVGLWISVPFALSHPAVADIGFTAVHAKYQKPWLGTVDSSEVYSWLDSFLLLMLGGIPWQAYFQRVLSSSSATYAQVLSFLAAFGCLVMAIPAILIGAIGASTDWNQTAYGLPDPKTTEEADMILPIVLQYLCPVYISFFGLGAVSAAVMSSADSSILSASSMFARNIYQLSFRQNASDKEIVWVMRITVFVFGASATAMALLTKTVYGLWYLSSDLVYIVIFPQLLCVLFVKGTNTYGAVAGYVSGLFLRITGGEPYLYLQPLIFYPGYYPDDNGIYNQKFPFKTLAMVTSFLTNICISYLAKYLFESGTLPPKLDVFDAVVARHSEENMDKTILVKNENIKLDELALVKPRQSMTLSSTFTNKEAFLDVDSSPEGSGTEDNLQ
As to the kind of experiment: human choline transporter blockers, potency – cell-based, 5-point CRC, membrane potential dye, dose response (AID 504840). The class given is functional.

The target of assay [24] is T5, High affinity choline transporter 1. Briefly: human choline transporter blockers, potency – cell-based, 10-point CRC, membrane potential dye, dose response (AID 588401).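 Further: membrane potential dye fluorescence of choline-evoked depolarization via CHT.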 The class given is functional.

These results are taken from ChEMBL document CHEMBL1201862, “PubChem BioAssay data set” (2004).

Calls of active or inactive are those of the source.

Sequence of Peroxisome proliferator-activated receptor gamma/Nuclear receptor coactivator 2 (P37231 whole entry): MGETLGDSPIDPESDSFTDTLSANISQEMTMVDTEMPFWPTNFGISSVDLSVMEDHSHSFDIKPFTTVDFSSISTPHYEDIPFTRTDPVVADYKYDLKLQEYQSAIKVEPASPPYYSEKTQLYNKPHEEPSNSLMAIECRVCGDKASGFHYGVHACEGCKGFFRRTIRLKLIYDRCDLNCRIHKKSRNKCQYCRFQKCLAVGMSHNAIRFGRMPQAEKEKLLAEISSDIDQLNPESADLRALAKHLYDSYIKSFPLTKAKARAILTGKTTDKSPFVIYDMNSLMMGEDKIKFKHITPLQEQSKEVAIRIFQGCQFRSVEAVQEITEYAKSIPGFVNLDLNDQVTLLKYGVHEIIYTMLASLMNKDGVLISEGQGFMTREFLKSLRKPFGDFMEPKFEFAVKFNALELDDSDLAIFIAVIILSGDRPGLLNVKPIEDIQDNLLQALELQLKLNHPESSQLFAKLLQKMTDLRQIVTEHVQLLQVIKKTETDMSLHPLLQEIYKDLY
Sequence of Peroxisome proliferator-activated receptor gamma/Nuclear receptor coactivator 2 (Q15596 whole entry, further chain): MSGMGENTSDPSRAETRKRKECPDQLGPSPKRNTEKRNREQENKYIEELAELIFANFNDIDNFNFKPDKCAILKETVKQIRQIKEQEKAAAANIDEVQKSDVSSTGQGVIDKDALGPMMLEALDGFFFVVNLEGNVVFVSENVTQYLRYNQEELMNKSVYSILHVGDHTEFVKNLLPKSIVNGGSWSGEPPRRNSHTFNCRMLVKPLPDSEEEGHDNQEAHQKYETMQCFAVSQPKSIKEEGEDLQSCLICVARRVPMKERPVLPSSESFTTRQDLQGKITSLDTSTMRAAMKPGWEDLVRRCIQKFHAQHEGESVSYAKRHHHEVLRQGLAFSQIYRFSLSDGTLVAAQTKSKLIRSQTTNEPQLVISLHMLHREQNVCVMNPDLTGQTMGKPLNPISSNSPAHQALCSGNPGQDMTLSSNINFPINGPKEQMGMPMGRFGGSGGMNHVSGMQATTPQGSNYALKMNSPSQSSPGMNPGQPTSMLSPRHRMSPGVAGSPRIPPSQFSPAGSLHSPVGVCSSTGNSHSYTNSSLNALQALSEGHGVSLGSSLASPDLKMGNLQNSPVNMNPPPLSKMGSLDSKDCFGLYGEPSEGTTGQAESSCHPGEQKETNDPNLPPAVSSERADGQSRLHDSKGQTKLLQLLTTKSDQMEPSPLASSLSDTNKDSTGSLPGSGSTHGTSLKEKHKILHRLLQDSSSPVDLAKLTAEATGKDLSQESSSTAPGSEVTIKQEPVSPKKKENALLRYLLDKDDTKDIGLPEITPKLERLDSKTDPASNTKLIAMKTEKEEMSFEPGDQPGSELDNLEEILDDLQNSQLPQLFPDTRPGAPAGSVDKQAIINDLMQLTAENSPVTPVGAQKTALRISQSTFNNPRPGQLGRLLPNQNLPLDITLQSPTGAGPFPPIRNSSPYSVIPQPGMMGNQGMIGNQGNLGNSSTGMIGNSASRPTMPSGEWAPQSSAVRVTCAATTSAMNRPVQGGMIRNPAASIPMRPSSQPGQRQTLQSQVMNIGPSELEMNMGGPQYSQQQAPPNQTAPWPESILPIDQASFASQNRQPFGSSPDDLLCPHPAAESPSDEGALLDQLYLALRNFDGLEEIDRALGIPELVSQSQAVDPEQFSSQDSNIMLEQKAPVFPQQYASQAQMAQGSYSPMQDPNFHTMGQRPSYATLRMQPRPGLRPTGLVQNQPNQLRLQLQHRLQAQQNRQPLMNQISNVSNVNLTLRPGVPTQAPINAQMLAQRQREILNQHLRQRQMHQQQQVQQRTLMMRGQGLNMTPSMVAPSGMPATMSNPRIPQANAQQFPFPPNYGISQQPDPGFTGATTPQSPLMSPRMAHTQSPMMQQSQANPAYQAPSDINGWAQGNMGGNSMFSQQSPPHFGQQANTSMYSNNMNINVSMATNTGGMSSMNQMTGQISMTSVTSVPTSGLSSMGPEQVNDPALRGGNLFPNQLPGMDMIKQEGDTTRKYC
Sequence of Peroxisome proliferator-activated receptor gamma/Nuclear receptor coactivator 1 (P37231 whole entry): as the sequence (P37231 whole entry) above
Sequence of Peroxisome proliferator-activated receptor gamma/Nuclear receptor coactivator 1 (Q15788 whole entry, further chain): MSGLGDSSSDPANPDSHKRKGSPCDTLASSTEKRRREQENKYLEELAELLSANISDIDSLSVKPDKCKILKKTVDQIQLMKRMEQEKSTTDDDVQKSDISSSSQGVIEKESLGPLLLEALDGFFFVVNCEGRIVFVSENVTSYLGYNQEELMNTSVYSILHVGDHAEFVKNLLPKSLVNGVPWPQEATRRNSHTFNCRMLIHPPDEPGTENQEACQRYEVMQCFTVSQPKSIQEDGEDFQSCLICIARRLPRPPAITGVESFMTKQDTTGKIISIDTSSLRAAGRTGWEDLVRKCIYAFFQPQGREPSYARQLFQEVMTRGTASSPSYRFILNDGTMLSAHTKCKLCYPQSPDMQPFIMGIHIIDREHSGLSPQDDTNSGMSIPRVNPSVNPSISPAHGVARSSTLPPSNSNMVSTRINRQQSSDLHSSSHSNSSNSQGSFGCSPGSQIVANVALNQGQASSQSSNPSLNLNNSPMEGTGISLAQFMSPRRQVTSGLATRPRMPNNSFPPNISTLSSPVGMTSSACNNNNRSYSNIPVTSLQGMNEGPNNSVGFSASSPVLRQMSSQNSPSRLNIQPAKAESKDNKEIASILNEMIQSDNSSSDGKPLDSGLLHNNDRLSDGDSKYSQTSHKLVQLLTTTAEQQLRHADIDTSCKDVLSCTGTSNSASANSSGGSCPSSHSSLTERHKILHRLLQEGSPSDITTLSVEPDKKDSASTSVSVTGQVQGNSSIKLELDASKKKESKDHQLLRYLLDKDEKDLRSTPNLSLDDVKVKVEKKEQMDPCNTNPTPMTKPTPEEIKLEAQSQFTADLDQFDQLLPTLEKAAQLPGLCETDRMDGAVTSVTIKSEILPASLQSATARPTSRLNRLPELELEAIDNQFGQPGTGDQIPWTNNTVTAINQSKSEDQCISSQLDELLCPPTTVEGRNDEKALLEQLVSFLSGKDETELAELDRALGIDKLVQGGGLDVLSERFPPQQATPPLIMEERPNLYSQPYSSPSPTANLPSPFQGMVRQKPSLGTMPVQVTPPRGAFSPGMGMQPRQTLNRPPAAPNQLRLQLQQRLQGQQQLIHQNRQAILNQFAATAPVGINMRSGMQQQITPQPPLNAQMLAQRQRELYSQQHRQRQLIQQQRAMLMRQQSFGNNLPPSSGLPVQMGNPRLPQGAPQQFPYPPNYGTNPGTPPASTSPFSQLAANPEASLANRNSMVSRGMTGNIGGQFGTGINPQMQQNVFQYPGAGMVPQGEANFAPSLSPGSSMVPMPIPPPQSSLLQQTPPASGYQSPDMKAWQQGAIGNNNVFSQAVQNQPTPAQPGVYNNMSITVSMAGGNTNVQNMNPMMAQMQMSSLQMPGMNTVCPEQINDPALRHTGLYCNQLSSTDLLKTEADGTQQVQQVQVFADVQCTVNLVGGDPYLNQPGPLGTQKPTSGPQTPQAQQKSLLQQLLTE
Sequence of Glyceraldehyde-3-phosphate dehydrogenase (P04406 whole entry): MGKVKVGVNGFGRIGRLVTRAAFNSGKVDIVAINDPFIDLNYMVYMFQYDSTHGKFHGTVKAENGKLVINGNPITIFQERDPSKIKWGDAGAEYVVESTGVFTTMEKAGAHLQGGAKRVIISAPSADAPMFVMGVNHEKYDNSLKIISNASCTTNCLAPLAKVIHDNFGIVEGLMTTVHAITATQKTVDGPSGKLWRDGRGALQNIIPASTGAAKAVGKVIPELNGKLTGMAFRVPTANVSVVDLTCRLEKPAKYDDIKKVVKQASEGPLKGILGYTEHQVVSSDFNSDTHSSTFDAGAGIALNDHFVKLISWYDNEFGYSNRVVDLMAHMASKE
Sequence of Cytochrome P450 2D6 (P10635 whole entry): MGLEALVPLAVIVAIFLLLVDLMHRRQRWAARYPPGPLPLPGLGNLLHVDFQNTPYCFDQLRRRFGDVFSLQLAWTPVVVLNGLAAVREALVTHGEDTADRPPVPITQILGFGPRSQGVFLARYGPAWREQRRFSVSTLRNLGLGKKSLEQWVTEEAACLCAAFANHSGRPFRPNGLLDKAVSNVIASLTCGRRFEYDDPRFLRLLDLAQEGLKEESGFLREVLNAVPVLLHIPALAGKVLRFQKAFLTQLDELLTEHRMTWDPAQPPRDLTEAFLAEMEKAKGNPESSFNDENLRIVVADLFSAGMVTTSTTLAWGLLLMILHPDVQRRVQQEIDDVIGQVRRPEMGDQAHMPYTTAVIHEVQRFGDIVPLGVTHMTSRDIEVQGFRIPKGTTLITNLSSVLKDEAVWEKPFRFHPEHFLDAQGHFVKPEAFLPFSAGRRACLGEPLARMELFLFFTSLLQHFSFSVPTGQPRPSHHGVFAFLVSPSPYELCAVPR

As to `COc1ccc(-n2c(=O)c3ccccc3n(CC(=O)NC3CCCCC3)c2=O)cc1OC`, in assay [1], the EC50 is listed as > 100 µM (not active).

As to `CCN1C(=O)C(=CNNC(=O)c2ccccc2)C(=O)N(CC)C1=S`, the CC50 in assay [2] was > 40 µM (active).

Turning to `CCCCC(=O)NC(=S)Nc1ccccc1C(=O)Nc1ccccc1`, the IC50 was > 66.6 µM (inactive) in [3], > 66.6 µM (inactive) in assay [4], > 66 µM (inactive) in assay [5] and > 66 µM (inactive) in assay [6].

In the case of `COc1ccc(S(=O)(=O)N(C(=O)c2ccncc2)c2ccc3oc4c(c3c2)CCCC4)cc1`, the CC50 in assay [2] was > 40 µM (active).

Regarding `COc1ccc(Oc2c(Cl)cnn(-c3cccc(C)c3)c2=O)cc1`, the IC50 in [7] was 5.4 µM (active).

In the case of `Cc1cc(C(=O)N/N=C/c2c[nH]nc2-c2ccccc2)cs1`, the 50% effective concentration (EC50) in assay [8], in [9] and in assay [10] was > 79.4 µM (not active) in each case.

Turning to `COCCNC(=O)c1cc(-c2ccc(Cl)cc2Cl)n[nH]1`, the IC50 in [11] is > 10 µM (inconclusive).

Consider `COc1ccc(NC(=O)CSc2nc3ccccc3c(=O)n2-c2ccc(F)cc2)cc1`, for which the IC50 in assay [12] is > 66.6 µM (active).

With `COc1ccc(/N=C2\S/C(=C\c3ccc(OC(C)C(=O)O)c(OC)c3)C(=O)N2CCc2c[nH]c3ccccc23)cc1` (stereo not drawn), the EC50 in [13] was 1.86 µM (active); in assay [15], > 50 µM (not active); in [19] it was 4.41 µM (active). Besides, the IC50 in assay [14] was 15.8 µM (active); in assay [16], > 50 µM (active); in assay [17], > 50 µM (inactive); in [18], 7.55 µM (active).

For the compound `COc1ccc(Oc2c(Cl)cnn(-c3cccc(Cl)c3)c2=O)cc1`, the IC50 in assay [7] was 10.5 µM (inactive).

Turning to `CCOC(=O)c1sc2nc(CC(=O)OC)nc(NCc3ccc(F)cc3)c2c1C`, the EC50 in assay [8], in [9] and in assay [10] was > 79.4 µM (not active) throughout. The values for the AC50 in [20] and in [21] were 5.62 µM (inconclusive) and 5.01 µM (inconclusive), respectively.

With `CCOc1cc(C)c(Cl)cc1S(=O)(=O)Nc1cccnc1`, the IC50 in assay [11] is > 100 µM (not active).

Consider `OCCN(CCO)Cc1nc(O)c2c(n1)-c1ccccc1CC21CCCCC1`, for which the EC50 in [1] is listed as 76.4 µM (not active).

For `O=c1cccc2n1C[C@@H]1C[C@H]2CN2CCCC[C@H]12`, the AC50 in [22] is 25.1 µM (inconclusive).

Take `CN1CCc2cc3c(cc2[C@@H]1[C@H]1OC(=O)c2c1ccc1c2OCO1)OCO3`: the AC50 in assay [22] was 10 µM (inconclusive).

For the compound `CS(=O)(=O)C1=NSC2=NC(=O)/C(=C\c3ccc(OS(=O)(=O)c4ccccc4)cc3)C(=N)N21`, the IC50 in [16] was 39.3 µM (active); in assay [23] it was 4.17 µM (active); in assay [24] it was 5.01 µM (active).
